{"source": "patent US6982150B2", "about": "“System and method for identifying proteins involved in force-initiated signal transduction” (priority 2002, dated 2006)", "key": {"[1]": {"test_system": "Triton X-100-insoluble cytoskeletons of L-929 cells", "assay": "Stretch-dependent GFP paxillin binding to Triton X-100-insoluble cytoskeletons (fluorescence, Western blot)", "set-up": "species or system Mouse", "protocol": "Cells were washed once with isotonic ISO buffer (20 mM Hepes, pH 7.5, 150 mM NaCl, 0.5 mM EDTA, 1 mM DTT, 4 mM MgCl2, 1 mM PMSF, 15 μg/ml aprotinin), treated with 0.25% Triton X-100/ISO(+) buffer (ISO buffer supplemented with 0.5 mM ATP, 2% BSA) for 2 min. and washed three times with ISO (+) buffer.\nThe supernatant was filtrated using PD-10 column (Amersham Pharmacia Biotech, Piscataway, N.J.) preequilibrated with ISO buffer.\nL-929 cells were cultured on the silicone substrate and Triton X-100 treated for 2 minutes, as indicated above. Thereafter, the Triton-X-100-insoluble cytoskeleton was washed 3 times with ISO(+) buffer to remove Triton X-100 and remaining Triton-soluble cellular components. After the third wash, the Triton X-100-insoluble cytoskeleton in ISO (+) buffer was left unstretched, stretched for 15 sec, or relaxed (pre-stretched and released from the stretch). The buffer was replaced with the lysate from L929 cells or 293 cells stably transfected with GFP paxillin and incubated for 2 minutes. The lysate was washed 4 times with ISO(+) buffer.\nCytoskeletons were stretched or unstretched. […]"}, "L-929 cells": {"test_system": "L-929 cells", "assay": "Stretch-dependent paxillin assembly at focal contacts in intact cells (fluorescence microscopy / immunostaining)", "assay_type": "cell-based, Mouse", "conditions": "intact L-929 cells, biaxial stretch 10%, genistein 100 μM, FIG. 4B", "protocol": "Subconfluent L-929 cells transiently transfected with GFP paxillin in the collagen-coated (type I) silicone membrane (Flexcell International, Hillsborough, N.C.) were stretched biaxially (10% in each dimension) for 2 min., and the GFP fluorescence was observed by fluorescence microscopy. Five min after stretch, the silicone substrate was relaxed to its original size, and the fluorescence was recorded. For endogenous paxillin measurement, L-929 cells cultured in silicone membranes were stretched likewise for 2 min, and fixed with 3.7% formaldehyde/PBS.\nGFP fluorescence of L-929 cells transfected with GFP-paxillin were also observed with an Olympus BX50 microscope with a 60×, 0.9 NA water immersion objective.\nFor immunostaining, cells were fixed with 3.7% formaldehyde/PBS, perneabilized with 0.1% Triton X-100/PBS before incubation with antibodies to paxillin and vinculin."}}}
{"smiles": "O=c1c(-c2ccc(O)cc2)coc2cc(O)cc(O)c12", "note": "[genistein]", "values": [{"measurement": "amount of GFP paxillin bound to the stretched cytoskeletons", "setting": "[1]; cells treated prior to Triton extraction, subconfluent, FIG. 5A, 5B, 5D", "result": "increase"}, {"measurement": "stretch-dependent paxillin accumulation", "setting": "L-929 cells", "result": "not inhibited"}]}
{"smiles": "[Na+].[Na+].[Na+].[O]=[V]([O-])([O-])[O-]", "note": "[sodium orthovandate]", "values": [{"measurement": "stretch-dependent GFP paxillin binding", "setting": "[1]; 1 mM added to lysates together with PAO, DTT excluded, FIG. 5C", "result": "did not affect"}]}
